# Data reported in ChEMBL document CHEMBL6178004, “Novel Azaindole Compounds as Phosphodiesterase 4B Inhibitors for Treating Immune-Inflammatory Diseases or Disorders” (ACS Med Chem Lett, 2025).
# How the values were obtained:
# [1] = biological target: 3',5'-cyclic-AMP phosphodiesterase 4B (Homo sapiens, UniProt Q07343); experiment: Inhibition of human recombinant PDE4B1 using [3H]cAMP as substrate incubated for 30 mins by scintillation proximity assay
# [2] = biological target: 3',5'-cyclic-AMP phosphodiesterase 4D (Homo sapiens, UniProt Q08499); experiment: Inhibition of human recombinant PDE4D3 using [3H]cAMP as substrate incubated for 30 mins by scintillation proximity assay; assay type: single protein
# Sequence of 3',5'-cyclic-AMP phosphodiesterase 4D (Q08499 whole entry): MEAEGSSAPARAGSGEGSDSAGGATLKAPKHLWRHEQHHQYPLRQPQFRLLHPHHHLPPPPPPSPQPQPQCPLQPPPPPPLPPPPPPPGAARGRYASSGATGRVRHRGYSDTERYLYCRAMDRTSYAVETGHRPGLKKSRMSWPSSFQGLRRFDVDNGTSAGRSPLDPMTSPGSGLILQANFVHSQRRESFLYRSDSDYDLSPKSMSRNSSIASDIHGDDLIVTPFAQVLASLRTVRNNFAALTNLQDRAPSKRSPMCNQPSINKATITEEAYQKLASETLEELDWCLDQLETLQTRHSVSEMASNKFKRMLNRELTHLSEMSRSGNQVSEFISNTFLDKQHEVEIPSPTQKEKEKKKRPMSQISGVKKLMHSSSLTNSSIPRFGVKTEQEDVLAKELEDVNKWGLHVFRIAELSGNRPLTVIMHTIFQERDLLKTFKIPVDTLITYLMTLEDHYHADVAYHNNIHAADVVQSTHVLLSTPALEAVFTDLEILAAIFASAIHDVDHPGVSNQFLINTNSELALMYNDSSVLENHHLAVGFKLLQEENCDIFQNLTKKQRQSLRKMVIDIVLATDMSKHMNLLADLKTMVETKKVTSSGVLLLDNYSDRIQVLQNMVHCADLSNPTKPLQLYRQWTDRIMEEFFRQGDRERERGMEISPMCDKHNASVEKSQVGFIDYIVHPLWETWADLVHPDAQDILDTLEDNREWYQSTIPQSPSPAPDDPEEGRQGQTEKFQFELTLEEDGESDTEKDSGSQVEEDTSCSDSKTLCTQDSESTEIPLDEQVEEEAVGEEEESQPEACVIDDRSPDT
# Sequence of 3',5'-cyclic-AMP phosphodiesterase 4B (Q07343 whole entry): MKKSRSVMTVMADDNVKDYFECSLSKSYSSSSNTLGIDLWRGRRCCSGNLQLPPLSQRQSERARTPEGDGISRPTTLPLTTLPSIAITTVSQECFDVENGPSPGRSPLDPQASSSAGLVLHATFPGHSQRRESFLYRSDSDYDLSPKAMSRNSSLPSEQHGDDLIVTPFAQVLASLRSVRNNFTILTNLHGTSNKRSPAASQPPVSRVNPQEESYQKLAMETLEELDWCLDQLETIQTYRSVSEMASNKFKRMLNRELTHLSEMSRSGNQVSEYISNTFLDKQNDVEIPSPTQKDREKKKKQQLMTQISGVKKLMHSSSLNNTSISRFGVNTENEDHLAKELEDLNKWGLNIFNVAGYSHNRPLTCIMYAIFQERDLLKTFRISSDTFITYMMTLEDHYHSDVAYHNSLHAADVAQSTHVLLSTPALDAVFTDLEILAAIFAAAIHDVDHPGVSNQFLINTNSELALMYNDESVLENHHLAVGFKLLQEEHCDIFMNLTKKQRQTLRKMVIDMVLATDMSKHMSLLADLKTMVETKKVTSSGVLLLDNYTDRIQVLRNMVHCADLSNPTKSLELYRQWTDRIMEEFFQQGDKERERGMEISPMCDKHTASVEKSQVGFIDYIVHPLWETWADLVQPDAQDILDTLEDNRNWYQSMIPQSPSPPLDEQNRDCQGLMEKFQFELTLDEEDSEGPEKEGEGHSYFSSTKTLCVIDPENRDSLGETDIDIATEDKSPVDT
IC50 [1] [nM],SMILES,IC50 [2] [nM]
< 10,C[C@@H]1Cn2c(c(-c3ccc(Cl)c(F)c3)c3ncccc32)C(=O)N1CCO,< 10
< 10,COc1ccc(-c2c3n(c4cc(F)cnc24)C[C@H](CO)N(C2CC2)C3=O)cn1,10
< 10,O=C1c2c(-c3ccc(Cl)c(F)c3)c3ncccc3n2C[C@H](CO)N1C1CC1,10
< 10,O=C1c2c(-c3ccc(Cl)c(F)c3)c3ncccc3n2CCN1CCO,10
< 10,O=C1c2c(-c3ccc(F)c(F)c3)c3ncccc3n2C[C@@H](CO)N1C1CC1,10
< 10,N#Cc1ccc(-c2c3n(c4cccnc24)C[C@@H](CO)N(C2CC2)C3=O)cc1F,10
